The values that follow come from ChEMBL document CHEMBL3507680, “University of Dundee, Gates Library screen for HepG2 cell viability”.

A short description of this series: Human HepG2 cell viability assay in 384 well format. The series is classed as toxicity, cell-based. The arrangement: dose 125 nL, time 70.5 hour; cytotoxicity at 70.5 h: concentration not given beside the values. Particulars: HepG2 cells, read-out: Inhibition.
Take `Cc1cc(=O)[nH]c(=O)n1Cc1ccccc1`: the cytotoxicity at 70.5 h is -7.18%.
In the case of `Cc1ccnn1CCN1CCCC2(CCC(=O)N(C3CCCC3)C2)C1` (configuration not stated), the cytotoxicity at 70.5 h is -21%.
With `Cc1cccc(OC2CCN(c3nc(N)nc4[nH]cnc34)CC2)c1` the figure was -1.39%; with `CCc1nccn1CC(=O)N1C[C@H]2CC[C@@H]1CN(S(=O)(=O)N(C)C)C2`, 1.78%.
The result for `Cc1cccc(C(C(=O)NCCCc2ccncc2)N(C)C)c1` (configuration not stated) reads -4.41%.
With `CCC(C)N(Cc1cccnc1)C(=O)c1ccc(OC)cc1O` (configuration not stated) the figure was -9.19%; with `Cc1cccnc1N1CCC(c2nccn2Cc2cscn2)CC1`, -0.624%; with `Cc1nc2c(c(=O)n1C)CN(C(=O)C1CCCN(C(=O)N(C)C)C1)C2` (configuration not stated), -0.169%.
Take `COCC(C)N(Cc1ccccc1OC)C(=O)c1cc(C)[nH]c(=O)c1` (configuration not stated): the cytotoxicity at 70.5 h is -5.15%.
With `OC[C@H]1CN(Cc2c(Cl)cncc2Cl)C[C@H]1CN1CCOCC1`, the cytotoxicity at 70.5 h was -10.9%.
As to `CN(C)C(=O)N1CCCn2nc(CNC(=O)CCc3cccs3)cc2C1`, the cytotoxicity at 70.5 h is 0.772%.
As for `CC(=O)C(C)CC(=O)N(Cc1cccc(C)c1)C(C)C` (configuration not stated), the cytotoxicity at 70.5 h was -1.29%.
For the compound `Cc1nc(C)n(CCNC2CCN(c3ncnc4c(C)csc34)CC2)n1`, the cytotoxicity at 70.5 h is -5.4%.
With `CN1CCCC2(CCN(c3cc(C(F)(F)F)nc(N(C)C)n3)C2)C1=O` (configuration not stated) the figure was 10.3%; with `O=C1O[C@@H]2CN(Cc3cc4ccccc4o3)C[C@@H]2N1Cc1ccccn1`, -4.9%; with `Cc1cc(NC(=O)c2ccc(N3CCOCC3)c(C)c2)[nH]n1`, 8.26%.
For the compound `Cc1c(C(C)NCc2cnn(C)c2)cnn1-c1ccccc1` (configuration not stated), the cytotoxicity at 70.5 h turned out to be 2.44%.
On to `COc1ccccc1Oc1ncccc1CNC(=O)C(O)C(F)(F)F` (configuration not stated), for which the cytotoxicity at 70.5 h is -5.77%.
On to `CCS(=O)(=O)N1CCC2(CCCN(Cc3ccc(F)c(F)c3)C2=O)C1` (configuration not stated), for which the cytotoxicity at 70.5 h was determined as 1.7%.
For `Cc1nc(C(C)C)ncc1C(=O)N1CCC(c2ccccc2C(=O)O)C1` (configuration not stated), the cytotoxicity at 70.5 h is -3.24%.
Consider `Nc1cc(CC2COc3ccccc3C2)ccn1` (configuration not stated), for which the cytotoxicity at 70.5 h stood at 11.8%.
Turning to `CC(C)c1nccc(CN(C)Cc2cnn(-c3ccccc3)c2)n1`, the cytotoxicity at 70.5 h is 26.7%.
With `CSc1nccc(N2CCC(=O)N(CC3CC3)C(C(C)C)C2)n1` (configuration not stated) the figure was 54.1%.
With `Nc1nccc(N2CCC(c3cc(Cc4ccccc4)n[nH]3)CC2)n1` the figure was 31.5%; with `COc1ccc(C2CC(=O)NCc3nc(N(C)C)sc32)c(O)c1` (configuration not stated), 2.48%.
Consider `Cc1noc(C)c1CCCNC(=O)C1CCN(C(=O)C2CC2)CC1`, for which the cytotoxicity at 70.5 h came to 24.8%.
With `CCNc1ccnc(NC2CCN(S(C)(=O)=O)CC2)n1` the figure was -14.6%; with `Cc1nccnc1N1C[C@H](NC(=O)CNS(C)(=O)=O)[C@@H](C2CC2)C1`, -3.36%; with `Cc1nnc(CN2CCOC(c3ccc(Cl)c(Cl)c3)C2)o1` (configuration not stated), -3.49%.
As to `CCC(Nc1ncnc2sc(C(=O)O)c(C)c12)c1ccnn1C` (configuration not stated), the cytotoxicity at 70.5 h was -12.8%.
`Cc1ccc(-c2noc(C(O)CC(C)C)n2)nn1` (configuration not stated): the cytotoxicity at 70.5 h is -3.31%.
As to `Cc1ncsc1C(=O)NCc1cc2n(n1)CCN(C(=O)N(C)C)C2`, the cytotoxicity at 70.5 h was -11.4%.
Consider `CC(C)Cc1ncc2c(n1)CN(c1nc(N(C)C)nc3c1CCCC3)C2`, for which the cytotoxicity at 70.5 h is -0.189%.
Regarding `CCC(CO)N(Cc1ccco1)C(=O)c1ccc(F)cc1Cl` (configuration not stated), the cytotoxicity at 70.5 h was -2.27%.
For `CCc1ncc2c(n1)CN(c1cc(NC3CC3)nc(N)n1)C2`, the cytotoxicity at 70.5 h was -8.23%.
With `C[C@@H]1CN(S(=O)(=O)N2CCOCC2)C[C@@]1(O)C1CC1`, the cytotoxicity at 70.5 h is -2.98%.
Turning to `CCn1nc(C)c(NC(=O)CN2CCC(c3ccccc3Cl)C2)c1C` (configuration not stated), the cytotoxicity at 70.5 h was determined as 21.2%.
With `COc1ccccc1OC1CCN(C(=O)C2CCCN(C)C2)CC1` (configuration not stated), the cytotoxicity at 70.5 h is -8.14%.
As for `CCC/C=C/c1ccc(CN2CCCC2)cn1`, the cytotoxicity at 70.5 h turned out to be 48.4%.
Take `COCCCN1CC2(CCC1=O)CCN(Cc1cc(C(C)C)no1)CC2`: the cytotoxicity at 70.5 h was determined as 29.5%.
The result for `Cc1nccn1CCC1CCCCN1C(=O)c1ccc2nonc2c1` (configuration not stated) reads -1.05%; that for `Cc1ccc(N2CC[C@@H](NC(=O)c3cnccn3)[C@H](O)C2)nn1`, -7.78%.
With `Cc1nccn1Cc1nnc(C2CCCN(c3ncccc3F)C2)n1C` (configuration not stated) the figure was -17.5%; with `Cc1cccnc1CN1CCN(CC(=O)N(C)C)[C@@H]2CS(=O)(=O)C[C@@H]21`, -5.23%; with `Cc1ccc(NC(=O)[C@H]2C[C@H](C(=O)O)CN(CC(C)C)C2)cn1`, -11.2%.
`CCCn1nccc1C(=O)N1CCCC(C(=O)CCc2ccccc2)C1` (configuration not stated): the cytotoxicity at 70.5 h is -2.61%.
Regarding `CC(C)c1cc(C2CCCN2C(=O)c2cn3ccsc3n2)no1` (configuration not stated), the cytotoxicity at 70.5 h was -5.17%.
For the compound `CN(C)Cc1ccc(C2CCCCN2C(=O)c2ncccc2O)cc1` (configuration not stated), the cytotoxicity at 70.5 h was -3.45%.
With `CC1=CC[C@@H]2CN(C(=O)c3ccc(-c4nc[nH]n4)cc3)C[C@@H]2C1`, the cytotoxicity at 70.5 h came out at 11%.
For `CN1CCC(Cc2nc(-c3cnccn3)n(C3CCS(=O)(=O)C3)n2)CC1` (configuration not stated), the cytotoxicity at 70.5 h is 0.375%.
As to `Cc1cc(C)c(C(=O)N(CCO)Cc2ccccc2F)c(=O)[nH]1`, the cytotoxicity at 70.5 h was -8.86%.
For `Cc1cc(NCCN2CCNC2=O)nc2cc3c(cc12)CCC3`, the cytotoxicity at 70.5 h is -4.19%.
As to `CCOc1ccccc1C(C(=O)O)N(C)Cc1cc(C)[nH]n1` (configuration not stated), the cytotoxicity at 70.5 h was -5.35%.
As for `O=C(O)C(c1ccc2[nH]ccc2c1)N1CCN(c2cnccn2)CC1` (configuration not stated), the cytotoxicity at 70.5 h is -3.87%.
With `Cc1cc(N2CCCN(CCc3ccccc3)CC2)ccn1`, the cytotoxicity at 70.5 h was -5.44%.
The result for `O=C1COc2cc(OC[C@@H]3CCCN4CCCC[C@H]34)ccc21` reads 14.3%; that for `N#Cc1cc2c(=O)n(CC(O)c3cccc(O)c3)ccc2[nH]c1=O` (configuration not stated), -6.53%; that for `Cc1nc2c(c(N(C)CC3Cc4ccccc4CN3C)n1)CCNCC2` (configuration not stated), 11.4%.
The result for `Cn1cc(CN2CCCC(Cn3cc(CCCO)nn3)C2)cn1` (configuration not stated) reads -7.9%.
Take `CS(=O)(=O)NCCC1CCCN(Cc2ccccc2F)C1` (configuration not stated): the cytotoxicity at 70.5 h is -7.9%.
As to `CCN(CC)CCNCc1cc(O)c2cc(C)ccc2n1`, the cytotoxicity at 70.5 h was -11.3%.
The result for `N#Cc1ccc(N2CCCC(CO)(CCOc3ccccc3)C2)nc1` (configuration not stated) reads -6.22%; that for `CCn1cnc(NC(=O)NCC2CCS(=O)(=O)CC2)n1`, -19.4%.
Take `O=C(c1cccc(-c2ncc[nH]2)c1)N1CCC(N2CCCC(O)C2)CC1` (configuration not stated): the cytotoxicity at 70.5 h amounted to 4.83%.
As for `O=C(O)c1ccc(N2CCC(Oc3ccc(Cl)cc3)CC2)nc1`, the cytotoxicity at 70.5 h was -12.3%.
Regarding `CS(=O)(=O)Cc1nc(CCc2ccccc2)nn1-c1ccccn1`, the cytotoxicity at 70.5 h was -10.4%.
On to `O=C(O)c1ccnc(-c2ccnc(NCCc3nc4c(s3)CCC4)n2)c1`, for which the cytotoxicity at 70.5 h was -6.73%.
As to `CCOc1ccccc1-n1c(C2CC2)n[nH]c1=O`, the cytotoxicity at 70.5 h was -16.7%.
With `Cc1cc2ncn(C[C@]3(O)CCCN4CCCC[C@@H]43)c2cc1C` the figure was -15%.
On to `Cc1ccc(OCC2CCCN(Cc3ccc(CO)o3)C2)cc1` (configuration not stated), for which the cytotoxicity at 70.5 h is -3.39%.
Turning to `C=C(C)COc1cccc(C(=O)N(C)Cc2cc(CC)no2)c1`, the cytotoxicity at 70.5 h was -3.37%.
For `CC1=CCN(S(=O)(=O)c2cccc(C(=O)N3CCOCC3)c2)CC1`, the cytotoxicity at 70.5 h is -15.8%.
For the compound `O=C(NCCc1ccccc1)c1cccc(S(=O)(=O)NC2CCOC2)c1` (configuration not stated), the cytotoxicity at 70.5 h worked out at 19.4%.
With `Cc1ncnc(N2CCN(C(=O)C3CC4(CCNCC4)CN3)CC2)c1C` (configuration not stated) the figure was 13.5%.
As to `CCS(=O)(=O)c1ncc(CN2CCSCC2)n1CCc1ccccc1`, the cytotoxicity at 70.5 h was -11.3%.
As to `CN(C)C(C(=O)N1CC(Oc2ccccc2F)C1)c1ccc(F)cc1` (configuration not stated), the cytotoxicity at 70.5 h is -0.723%.
The result for `COc1ccc(C(=O)N2CC[C@](C)(O)[C@H](C)C2)cc1N1CCOCC1` reads -8.2%.
On to `Cc1n[nH]c(C)c1CCC(=O)NCC1CCCN(C2CCCC2)C1` (configuration not stated), for which the cytotoxicity at 70.5 h worked out at 30.3%.
Consider `CCOc1cccc(C2CC(=O)NCc3nc(N4CCCC4)sc32)c1` (configuration not stated), for which the cytotoxicity at 70.5 h is -3%.
In the case of `COCc1cc(N(C)CCC(O)c2ccccc2)n2nccc2n1` (configuration not stated), the cytotoxicity at 70.5 h was -7.44%.
The result for `COC[C@]1(O)CCN(Cc2cnc(N(C)C)nc2)CC1(C)C` reads -18.8%.
In the case of `Cc1ccccc1C(C(=O)NCCSC(C)C)N(C)C` (configuration not stated), the cytotoxicity at 70.5 h is -9.38%.
As to `Cc1cc(NCCc2nnc(N)s2)nc(-c2ccccc2)n1`, the cytotoxicity at 70.5 h was -2.76%.
In the case of `c1cnc(N2CCC(c3nccn3CC3CC3)CC2)nc1`, the cytotoxicity at 70.5 h was -2.28%.
Turning to `Cn1cc(C2=CCN(CCC(=O)NCc3ccc(Cl)cc3)CC2)cn1`, the cytotoxicity at 70.5 h was -2.89%.
Turning to `CC(C)n1cc(-c2c(C#N)c(N)nc3c2COCC3)cn1`, the cytotoxicity at 70.5 h came to 10.2%.
On to `Cc1ccc(C(=O)N2C[C@H]3CC[C@@H]2CN(S(=O)(=O)N(C)C)C3)c(O)c1`, for which the cytotoxicity at 70.5 h turned out to be 14.2%.
For `CN1C[C@@H](n2cnc(-c3ccccc3)c2-c2ncc[nH]2)C[C@H]1C(=O)O`, the cytotoxicity at 70.5 h stood at 5.36%.
With `CN1N=C(C(=O)N2CCCC(CCc3cccc(F)c3)C2)CCC1=O` (configuration not stated) the figure was -3.78%.
Take `COc1ccc(NC2CCCN(Cc3cnc(N(C)C)s3)C2)cc1OC` (configuration not stated): the cytotoxicity at 70.5 h was -12%.
For `Cc1ccc2nc(CN3CCCCC3CCN3CCOCC3)cn2c1` (configuration not stated), the cytotoxicity at 70.5 h is -10.8%.
With `CC(c1ccccn1)N(C)Cc1ccc(CCC(C)(C)O)cc1` (configuration not stated) the figure was -1.13%.
With `CSCC1CCN(C(=O)Cn2ncc(N3CCCCC3)cc2=O)CC1`, the cytotoxicity at 70.5 h was -16.3%.
The result for `CC(C)CN1CC2(CCN(C(=O)c3cnccn3)CC2)CC1=O` reads -15%; that for `CCc1cc(N(C)Cc2[nH]nc3c2CCC3)nc(N2CCOCC2)n1`, -15.5%; that for `Cc1cccc(-n2cc(CN3CCN(C)[C@@H]4CS(=O)(=O)C[C@@H]43)cn2)c1`, -15.9%.
Turning to `O=C1CSc2ccccc2N1CC(=O)N1CCCCC1c1nccs1` (configuration not stated), the cytotoxicity at 70.5 h was -8.8%.
